Experimental data: patent US6498252B1, “Pyrimidine-2,4,6-trione derivatives, processes for their production and pharmaceutical agents containing these compounds” (priority 1999, dated 2002)

target: T1, MMP-8, catalytic domain (Homo sapiens, UniProt P22894); assay: Inhibition of MMP-8 (HNC) catalytic domain, fluorogenic substrate cleavage; format: biochemical; conditions: not given
T1 construct: Enzyme: 8 nM catalytic domain (Met80-Gly242) of human neutrophil collagenase (MMP-8); made in house
Experimental: In order to determine the inhibition of MMPs, for example HNC (MMP-8), the catalytic domain (isolation and purification see for example Schnierer, S., Kleine, T., Gote, T., Hillemann, A., Knäuper, V., Tschesche, H.,Biochem. Biophys. Res. Commun. (1993) 191, 319-326) were incubated with inhibitors having various concentrations. Subsequently, the initial reaction rate in the conversion of a standard substrate was measured in a manner analogous to Grams F. et al., FEBS 335 (1993) 76-80).
The results awee evaluated by plotting the reciprocal reaction rate against the concentration of the inhibitor. The inhibition constant (Ki) is obtained as the negative section of the abscissis by the graphical method according to Dixon, M., Biochem. J. (1953) 55, 170-202.
The synthetic collagenase substrate was a heptapeptide which is coupled, at the C terminus, with DNP (dinitrophenol). Said DNP residue quenched by steric hindrance the fluorescence of the adjacent tryptophane of the heptapeptide. After cleavage of a tripeptide which includes the DNP group, the tryptophane fluorescence increased. The proteolytic cleavage of the substrate therefore was measured by the fluorescence value.
The assay was performed at 25° C. in a freshly prepared 50 mM Tris buffer (pH 8.0) treated with dithiozone to remove traces of heavy metals. 4 mM CaCl2 was added and the buffer saturated with argon. Stock solutions of adamalysin II were prepared by centrifugation of the protein from an ammonium sulfate suspension and subsequent dissolution in the assay buffer. Stock solutions of collagenase were diluted with the assay buffer. Enzyme concentrations were determined by uv measurements (ε280=2.8 10^4 M^−1 cm^−1, ε288: 2.2 10^4 M^−. cm^−1) and the stock solutions were stored in the cold. This solution was diluted 1:100 to obtain the final 16 nM assay concentration. The fluorogenic substrate DNP-Pro-Leu-Gly-Leu-Trp-Ala-D-Arg-NH2 with a Km of 52 μM was used at a concentration of 21.4 μM; for the Ki determination a 12.8 μM concentration has also been used. Substrate fluorescence was measured at an excitation and emission wavelength of λ=320 and 420 nm, respectively, on a spectrofluorimeter (Perkin Elmer, Model 650-40) equipped with a thermostated cell holder. Substrate hydrolysis was monitored for 10 minutes. immediately after adding the enzyme. All reactions were performed at least in triplicate. The Ki values-of the inhibitors were calculated from the intersection point of the straight lines obtained by the plots of vo/vi vs. [concentration of inhibitor], whereas IC50 values were calculated from plots of vi/vo [concentration of inhibitor] by non-linear regression with simple robust weighting.
50 mM Tris/HCI pH 7.6 (Tris=Tris-(hydroxymethyl)-aminomethan)
100 mM NaCl/10 mM CaCl2/5% MeOH (ff necessary)
Enzyme: 8 nM catalytic domain (Met80-Gly242) of human neutrophil collagenase (MMP-8)
10 microM DNP-Pro-Leu-Gly-Leu-Trp-Ala-D-Arg-NH2
A solution of the enzyme and inhibitor in assay buffer (25° C.) was prepared. The reaction was started by giving the substrate into the solution. The cleavage of the fluorogenic substrate was followed by fluorescence spectroscopy with an excitation and emission wavelength of 280 and 350 nm, respectively. The IC50 value was calculated as the inhibitor concentration, which is necessary to decrease the velocity of the reaction to the half in comparison to the reaction without inhibitor.
118 cited in the patent application EP0869947

T1 sequence (P22894 100-262 limits assumed): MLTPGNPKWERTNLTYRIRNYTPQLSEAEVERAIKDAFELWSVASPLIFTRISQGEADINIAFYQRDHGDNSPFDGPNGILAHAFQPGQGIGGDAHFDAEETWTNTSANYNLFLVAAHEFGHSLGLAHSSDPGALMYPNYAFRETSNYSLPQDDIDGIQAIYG

Row | SMILES | IC50
1 | NS(=O)(=O)c1ccc(N2CCN(C3(c4ccc(Oc5ccc(Cl)cc5)cc4)C(=O)NC(=O)NC3=O)CC2)cc1 [Example 5 - no. 9, 4-(4-5-[4-(4-Chloro-phenoxy)-phenyl]-2,4,6-trioxo-hexahydro-pyrimidin-5-yl-piperazin-1-yl)-benzenesulfonamide] | 12 nM
2 | O=C1NC(=O)C(c2ccc(Oc3ccc(Cl)cc3)cc2)(N2CCN(c3ccc(S(=O)(=O)N(CCO)CCO)cc3)CC2)C(=O)N1 [Example 5 - no. 10, 4-(4-5[-4-(4-Chloro-phenoxy)-phenyl]-2,4,6-trioxo-hexahydro-pyrimidin-5-yl-piperazin-1-yl)-N,N-bis-(2-hydroxy-ethyl)-benzenesulfonamide] | 9 nM
3 | O=C1NC(=O)C(c2ccc(Oc3ccccc3)cc2)(N2CCN(c3ccc(S(=O)(=O)NCC(O)CO)cc3)CC2)C(=O)N1 (stereo not shown) [Example 5 - no. 11, N-(2,3-Dihydroxy-propyl)-4-4-[2,4,6-trioxo-5-(4-phenoxy-phenyl)-hexahydro-pyrimidin-5-yl]-piperazin-1-yl-benzenesulfonamide] | 4.5 nM
4 | O=C1NC(=O)C(c2ccc(Oc3ccccc3)cc2)(N2CCN(c3ccc(S(=O)(=O)NC(CO)CO)cc3)CC2)C(=O)N1 [Example 5 - no. 12, N-(2-Hydroxy-1-hydroxymethyl-ethyl)-4-4-[2,4,6-trioxo-5-(4-phenoxy-phenyl)-hexahydro-pyrimidin-5-yl]-piperazin-1-yl-benzenesulfonamide] | 5.5 nM
5 | O=C1NC(=O)C(c2ccc(Oc3ccccc3)cc2)(N2CCN(c3ccc(S(=O)(=O)NCCOCCOCCO)cc3)CC2)C(=O)N1 [Example 5 - no. 13, N-2-[2-(2-Hydroxy-ethoxy)-ethoxy]-ethyl-4-4-[2,4,6-trioxo-5-(4-phenoxy-phenyl)-hexahydro-pyrimidin-5-yl]-piperazin-1-yl-benzenesulfonamide] | 6 nM
6 | O=C1NC(=O)C(c2ccc(Oc3ccc(Cl)cc3)cc2)(N2CCN(c3ccc(S(=O)(=O)NC(CO)(CO)CO)cc3)CC2)C(=O)N1 [Example 5 - no. 19, 4-(4-5-[4-(4-Chloro-phenoxy)-phenyl]-2,4,6-trioxo-hexahydro-pyrimidin-5-yl-piperazin-1-yl)-N-(2-hydroxy-1,1-bis-hydroxymethyl-ethyl)-benzenesulfonamide] | 9 nM
7 | O=C1NC(=O)C(c2ccc(Oc3ccccc3)cc2)(N2CCN(c3ccc(S(=O)(=O)NCC4COC(=O)O4)cc3)CC2)C(=O)N1 (stereo not shown) [Example 6, N-(2-Oxo-[1,3]dioxolan-4-ylmethyl)-4-4-[2,4,6-trioxo-5-(4-phenoxy-phenyl)-hexahydro-pyrimidin-5-yl]-piperazin-1-yl-benzenesulfonamide] | 9 nM

same assay, conditions: catalytic domain of human neutrophil collagenase (MMP-8); substrate DNP-Pro-Leu-Gly-Leu-Trp-Ala-D-Arg-NH2; 25° C.; read-out: IC50 Values of MMP-Inhibitor (vs. MMP-8, catalytic domain)

Row | SMILES | IC50
8 | O=C1NC(=O)C(c2ccc(Oc3ccc(Cl)cc3)cc2)(N2CCN(c3ncccn3)CC2)C(=O)N1 [Example 1, 5-(4-(4-Chloro-phenoxy)-phenyl)-5-(4-pyrimidine-2-yl-piperazine)-pyrimidine-2,4,6-trione] | 10 nM
9 | O=C1NC(=O)C(c2ccc(Oc3ccc(Cl)cc3)cc2)(N2CCN(c3cnccn3)CC2)C(=O)N1 [Example 2] | 4 nM
10 | O=C1NC(=O)C(c2ccc(Oc3ccc(Cl)c(Cl)c3)cc2)(N2CCN(c3ncccn3)CC2)C(=O)N1 [Example 3 - no. 1, 5-[4-(3,4-Dichloro-phenoxy)-phenyl]-5-(4-pyrimidin-2-yl-piperazin-1-yl)-pyrimidine-2,4,6-trione] | 4 nM
11 | O=C1NC(=O)C(c2ccc(Oc3ccc(Cl)c(Cl)c3)cc2)(N2CCN(c3cnccn3)CC2)C(=O)N1 [Example 3 - no. 2, 5-[4-(3,4-Dichloro-phenoxy)-phenyl]-5-(2,3,5,6-tetrahydro-[1,2′]bipyrazinyl-4-yl)-pyrimidine-2,4,6-trione] | 2 nM
12 | O=C1NC(=O)C(c2ccc(Oc3ccc(Br)cc3)cc2)(N2CCN(c3ncccn3)CC2)C(=O)N1 [Example 3 - no. 15, 5-[4-(4-Bromo-phenoxy)-phenyl]-5-(4-pyrimidin-2-yl-piperazin-1-yl)-pyrimidine-2,4,6-trione] | 4 nM
13 | O=C1NC(=O)C(c2ccc(Oc3ccc(Cl)cc3)cc2)(N2CCN(c3ccc(S(=O)(=O)NCCO)cc3)CC2)C(=O)N1 [Example 4, 4-(4-5-[4-(4-Chloro-phenoxy)-phenyl]-2,4,6-trioxo-hexahydro-pyrimidin-5-yl-piperazin-1-yl)-N-(2-hydroxy-ethyl)-benzenesulfonamide] | 10 nM
14 | NS(=O)(=O)c1ccc(N2CCN(C3(c4ccc(Oc5ccc(Br)cc5)cc4)C(=O)NC(=O)NC3=O)CC2)cc1 [Example 5 - no. 6, 4-(4-5-[4-(4-Bromo-phenoxy)-phenyl]-2,4,6-trioxo-hexahydro-pyrimidin-5-yl-piperazin-1-yl)-benzenesulfonamide] | 2.8 nM
15 | CN(C)CCNS(=O)(=O)c1ccc(N2CCN(C3(c4ccc(Oc5ccc(Br)cc5)cc4)C(=O)NC(=O)NC3=O)CC2)cc1 [Example 5 - no. 7, 4-(4-5-[4-(4-Bromo-phenoxy)-phenyl]-2,4,6-trioxo-hexahydro-pyrimidin-5-yl-piperazin-1-yl)-N-(2-dimethylamino-ethyl)-benzenesulfonamide] | 13 nM
16 | O=C1NC(=O)C(c2ccc(Oc3ccccc3)cc2)(N2CCN(c3ccc(S(=O)(=O)NC(CO)(CO)CO)cc3)CC2)C(=O)N1 [Example 5 - no. 18, N-(2-Hydroxy-1,1-bis-hydroxymethyl-ethyl)-4,4-[2,4,6-trioxo-5-(4-phenoxy-phenyl)-hexahydro-pyrimidin-5-yl]-piperazin-1-yl-benzenesulfonamide] | 13 nM
